In ChEMBL document CHEMBL1201862, “PubChem BioAssay data set” (2004):
The source made the active and inactive calls. For most assays here, no stated cut-off is given here; in the data, actives have a measured AC50 and inactives only a lower limit.

Experiments:
Format in all cases: functional
Protein RecA = target: T1, Protein RecA (Mycobacterium tuberculosis, UniProt P9WHJ3); experiment: Fluorescence Cell-Free Homogeneous Dose Retest to Identify Inhibitors of RecA-Intein Splicing Activity. [Related pubchem assays (depositor defined):AID2097, AID2223, AID489010, AID492950]
T1 sequence (P9WHJ3 whole entry): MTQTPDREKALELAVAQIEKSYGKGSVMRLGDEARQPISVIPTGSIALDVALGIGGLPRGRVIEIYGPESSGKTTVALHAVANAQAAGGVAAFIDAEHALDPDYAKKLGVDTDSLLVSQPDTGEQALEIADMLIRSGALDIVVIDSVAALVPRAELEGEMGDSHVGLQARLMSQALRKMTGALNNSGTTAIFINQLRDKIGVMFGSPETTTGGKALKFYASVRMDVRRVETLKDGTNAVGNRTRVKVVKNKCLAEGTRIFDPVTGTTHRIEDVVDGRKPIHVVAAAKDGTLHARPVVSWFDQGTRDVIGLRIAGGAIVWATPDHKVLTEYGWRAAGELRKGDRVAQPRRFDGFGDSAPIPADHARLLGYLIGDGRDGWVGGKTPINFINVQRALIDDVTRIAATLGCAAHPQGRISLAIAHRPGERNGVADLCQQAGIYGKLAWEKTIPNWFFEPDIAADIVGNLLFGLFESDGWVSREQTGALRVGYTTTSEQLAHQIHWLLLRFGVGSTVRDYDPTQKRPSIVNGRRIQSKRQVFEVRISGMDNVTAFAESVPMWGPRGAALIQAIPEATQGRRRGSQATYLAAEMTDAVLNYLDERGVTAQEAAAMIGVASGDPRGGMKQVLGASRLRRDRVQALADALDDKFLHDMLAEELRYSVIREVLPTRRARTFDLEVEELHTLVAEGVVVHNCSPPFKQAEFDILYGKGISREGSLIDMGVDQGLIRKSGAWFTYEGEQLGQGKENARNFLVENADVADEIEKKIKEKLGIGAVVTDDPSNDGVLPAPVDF

INS1 = experiment: INS-1E survival protection against cytokine death – cell-based, luminescence, retest, dose response (AID 449756); details: Rattus norvegicus;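 further: cell death triggered by IL-1 beta plus TNF-alpha plus IFN-gamma mixture; protective hits raise ATP signal compared with cytokine alone wells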
[1] = loss of viability in HepG2 cells – cell-based, CellTiter-Glo, cherry-picked, cytotoxicity control for Shn3 inhibitor project, dose response (AID 624134)

| SMILES | EC50 (Protein RecA) | AC50 (INS1) | AC50 [1] |
| --- | --- | --- | --- |
| O=C(O)CSc1cc(NS(=O)(=O)c2ccc(Br)cc2)c2ccccc2c1O | 0.244 µM (active) |  |  |
| O=C(CC(O)(C(F)(F)F)C(F)(F)F)Nc1ccc(Cl)c(Cl)c1 |  | 2.44 µM (active) | 3.7 µM (active) |
| O=C(CNc1cccc2ccccc12)N/N=C/c1ccc([N+](=O)[O-])o1 |  | 5.58 µM (active) |  |
| Cc1ccc(NC(=O)C2=C(c3ccccc3)S(=O)(=O)CCS2(=O)=O)cc1 | 1.01 µM (active) | 6.54 µM (active) | 12.5 µM (active) |
